This is an account of results in patent publication US20150225404A1, “PYRIDINE DERIVATIVE AND MEDICINE” (NIPPON SHINYAKU CO., LTD., priority 2012, published 2015).

Each structure is given as a SMILES string. Where a name gives a salt, the structure may show the parent alone.

As usually defined, the IC50 is the midpoint of a concentration-inhibition curve. The low end stands for inhibition by little substance, the high end for a need for much substance.

This test deals with T1, human mGluR5 (Homo sapiens, UniProt P41594).
T1 construct: expressed in transfected cells
T1 sequence (P41594 21-1212): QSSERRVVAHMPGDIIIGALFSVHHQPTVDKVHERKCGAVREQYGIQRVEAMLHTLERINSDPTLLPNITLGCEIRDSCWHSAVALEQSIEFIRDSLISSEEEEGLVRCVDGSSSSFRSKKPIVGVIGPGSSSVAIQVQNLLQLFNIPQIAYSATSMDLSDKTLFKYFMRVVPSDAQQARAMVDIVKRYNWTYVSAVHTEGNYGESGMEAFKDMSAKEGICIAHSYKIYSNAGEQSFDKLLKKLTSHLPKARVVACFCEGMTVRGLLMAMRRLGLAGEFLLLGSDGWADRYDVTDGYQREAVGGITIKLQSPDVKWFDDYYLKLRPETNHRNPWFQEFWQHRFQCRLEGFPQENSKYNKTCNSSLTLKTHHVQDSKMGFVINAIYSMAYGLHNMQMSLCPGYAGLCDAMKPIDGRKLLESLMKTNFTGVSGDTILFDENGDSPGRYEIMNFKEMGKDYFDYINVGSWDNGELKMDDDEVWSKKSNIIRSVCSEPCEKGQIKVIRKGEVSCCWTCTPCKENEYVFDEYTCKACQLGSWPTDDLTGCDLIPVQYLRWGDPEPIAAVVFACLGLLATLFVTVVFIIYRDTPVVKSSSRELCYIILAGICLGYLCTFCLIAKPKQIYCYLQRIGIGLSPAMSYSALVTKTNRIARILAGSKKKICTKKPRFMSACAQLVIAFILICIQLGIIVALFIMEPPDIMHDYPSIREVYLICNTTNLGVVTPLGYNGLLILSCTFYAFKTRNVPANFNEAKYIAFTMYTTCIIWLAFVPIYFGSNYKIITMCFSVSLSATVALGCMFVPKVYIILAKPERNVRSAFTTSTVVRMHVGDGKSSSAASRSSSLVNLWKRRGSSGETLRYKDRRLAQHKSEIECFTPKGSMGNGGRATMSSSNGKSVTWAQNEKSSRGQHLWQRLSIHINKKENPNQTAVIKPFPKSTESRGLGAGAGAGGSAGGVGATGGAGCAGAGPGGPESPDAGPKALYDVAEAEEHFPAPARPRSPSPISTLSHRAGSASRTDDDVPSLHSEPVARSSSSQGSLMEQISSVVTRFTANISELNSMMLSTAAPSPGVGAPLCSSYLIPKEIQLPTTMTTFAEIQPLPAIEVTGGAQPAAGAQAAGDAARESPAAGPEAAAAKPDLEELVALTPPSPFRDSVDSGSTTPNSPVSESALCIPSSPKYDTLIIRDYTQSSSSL
Kind of test: Experiment for receptor function of mGluR5 (Ca2+-dependent fluorescence, FLIPR, CHO-K1 cells stably expressing human mGluR5). It counts as cell-based. Conditions: L-glutamic acid 10 μM, Fluo-4 fluorescence. The method, then: Stable expression cells in which the human mGluR5 gene had been introduced into a Chinese hamster ovary cell (CHO-K1) were used for evaluation. The cells were suspended in a growth medium (MEM-α (D8042, available from Sigma) containing 10% inactivated FBS (Cat. No. 171012, available from CCB) and 2 mM glutamax (Cat. No. 35050, available from GIBCO)) and seeded on a black clear-bottom 96-well plate at 100,000 cells per well. One day after seeding, the medium was replaced by a medium (Hanks' balanced salt solution (HBSS buffer solution) (20 mM HEPES, 2.5 mM probencide (165-15472, available from Wako Pure Chemical Industries, Ltd.), and 10×HBSS (14065-056, available from Gibco) diluted 10 times, pH 7.4)) containing a calcium-sensitive dye Fluo-4 AM at a final concentration of […] (F312, available from Dojindo Laboratories) and Pluronic F-127 at a final concentration of 0.0145% (P-2443, available from Sigma), followed by incubation at 37° C. for one hour, thereby loading Fluo-4 AM into the cells.
Subsequently, the cells were washed twice with an HBSS buffer solution, to which was subsequently added the same buffer solution. Twenty minutes thereafter, the plate was transferred into a fluorescence screening system (FLIPR TETRA, available from Molecular Devices, LLC) and measured for a Ca^2+-dependent fluorescence change in the cells.
First of all, a fluorescence baseline was measured, and thereafter, fluorescence measurement was performed for 2 minutes while adding a test substance, an excessive amount of 6-methyl-2-(phenylethynyl)pyridine (hereinafter referred to as “MPEP”) (final concentration: 10 μM), or the medium. Thereafter, fluorescence measurement was carried out for one minute while adding L-glutamic acid (final concentration: 10 μM).
While taking a fluorescence intensity caused by L-glutamic acid as 100% and a fluorescence intensity caused by L-glutamic acid in the presence of MPEP as 0%, respectively, function inhibitory activity against human mGluR5 was evaluated from the fluorescence intensity caused by L-glutamic acid in the presence of the test substance at each concentration, and an IC50 value was estimated according to a logistic equation (SAS System).
As for `Fc1ccc(COc2cc(-c3cncnc3)c3c(n2)CCC3)nc1` [Example 25, 2-[(5-Fluoropyridin-2-yl)methoxy]-4-(pyrimidin-5-yl)-6,7-dihydro-5H-cyclopenta[b]pyridine], the concentration for half-maximal inhibition (IC50) was found to be 60.6 nM.
The molecule `Cc1cncc(-c2cc(OCc3ccccn3)nc3c2CCCC3)n1` [Example 201, 4-(6-Methylpyrazin-2-yl)-2-(pyridin-2-ylmethoxy)-5,6,7,8-tetrahydroquinoline] displayed a concentration for half-maximal inhibition (IC50) of 36.2 nM.
In turn, `Fc1ccc(-c2cc(OCc3ccccn3)nc3c2CCCC3)cn1` [Example 101, 4-(6-Fluoropyridin-3-yl)-2-(pyridin-2-ylmethoxy)-5,6,7,8-tetrahydroquinoline dihydrochloride] registered a half-maximal inhibitory concentration (IC50) of 23.4 nM.
In turn, `OCc1cncc(-c2cc(OCc3ccc(F)cc3)nc3c2CCC3)c1` [Example 248, (5-{2-[(4-Fluorobenzyl)oxy]-6,7-dihydro-5H-cyclopenta[b]pyridin-4-yl}pyridin-3-yl)methanol] yielded an IC50 of 95 nM.
`N#Cc1ccc(COc2cc(-c3cncc(F)c3)c3c(n2)CCC3)nc1` [Example 250, 6-({[4-(5-Fluoropyridin-3-yl)-6,7-dihydro-5H-cyclopenta[b]pyridin-2-yl]oxy}methyl)pyridine-3-carbonitrile] registered a half-maximal inhibitory concentration (IC50) of 10.6 nM.
The molecule `COC(=O)c1cncc(-c2cc(OCc3ccccn3)nc3c2CCCC3)c1` [Example 116, Methyl 5-[2-(pyridin-2-ylmethoxy)-5,6,7,8-tetrahydroquinolin-4-yl]pyridine-3-carboxylate] gave an IC50 of 133 nM.
`N#Cc1ccc(COc2cc(-c3cccnn3)c3c(n2)CCC3)cc1` [Example 273, 4-({[4-(Pyridazin-3-yl)-6,7-dihydro-5H-cyclopenta[b]pyridin-2-yl]oxy}methyl)benzonitrile] registered a half-maximal inhibitory concentration (IC50) of 62 nM.
As to `N#Cc1ncc(-c2cc(OCc3ccc(F)cn3)nc3c2CCC3)cn1` [Example 49, 5-{2-[(5-Fluoropyridin-2-yl)methoxy]-6,7-dihydro-5H-cyclopenta[b]pyridin-4-yl}pyrimidine-2-carbonitrile], the IC50 came out at 55 nM.
In the case of `Fc1cccc(COc2cc(-c3cccnc3)c3c(n2)CCCC3)n1` [Example 86, 2-[(6-Fluoropyridin-2-yl)methoxy]-4-(pyridin-3-yl)-5,6,7,8-tetrahydroquinoline], it took 15.1 nM to reach half-maximal inhibition (IC50).
`N#Cc1ccc(COc2cc(-c3cncc(CO)c3)c3c(n2)CCC3)cc1` [Example 247, 4-[({4-[5-(Hydroxymethyl)pyridin-3-yl]-6,7-dihydro-5H-cyclopenta[b]pyridin-2-yl}oxy)methyl]benzonitrile] showed an IC50 of 52 nM.
`N#Cc1cccc(COc2cc(-c3ccnc(F)c3)c3c(n2)CCC3)c1` [Example 251, 3-({[4-(2-Fluoropyridin-4-yl)-6,7-dihydro-5H-cyclopenta[b]pyridin-2-yl]oxy}methyl)benzonitrile] registered a concentration for half-maximal inhibition (IC50) of 94.3 nM.
The same measure for `N#Cc1ccc(COc2cc(-c3ccnc(F)c3)c3c(n2)CCC3)nc1` [Example 252, 6-({[4-(2-Fluoropyridin-4-yl)-6,7-dihydro-5H-cyclopenta[b]pyridin-2-yl]oxy}methyl)pyridine-3-carbonitrile]: 13.5 nM; for `Fc1ccc(COc2cc(-c3cccnc3F)c3c(n2)CCCC3)nc1` [Example 138, 4-(2-Fluoropyridin-3-yl)-2-[(5-fluoropyridin-2-yl)methoxy]-5,6,7,8-tetrahydroquinoline hydrochloride]: 95 nM; for `CN(C)c1cncc(-c2cc(OCc3ccccn3)nc3c2CCCC3)c1` [Example 126, N,N-Dimethyl-5-[2-(pyridin-2-ylmethoxy)-5,6,7,8-tetrahydroquinolin-4-yl]pyridin-3-amine]: 99.8 nM.
On to `Fc1nccnc1-c1cc(OCc2ccccn2)nc2c1CCCC2` [Example 200, 4-(3-Fluoropyrazin-2-yl)-2-(pyridin-2-ylmethoxy)-5,6,7,8-tetrahydroquinoline hydrochloride], for which the IC50 stood at 144 nM.
For the molecule `COc1cncc(-c2cc(OCc3ccccn3)nc3c2CCCC3)c1` [Example 102, 4-(5-Methoxypyridin-3-yl)-2-(pyridin-2-ylmethoxy)-5,6,7,8-tetrahydroquinoline hydrochloride], 51.2 nM corresponded to half-maximal inhibition (IC50).
`c1ccc(COc2cc(-c3cccnc3)c3c(n2)CCC3)nc1` [Example 1, 4-(Pyridin-3-yl)-2-(pyridin-2-ylmethoxy)-6,7-dihydro-5H-cyclopenta[b]pyridine dihydrochloride]: 144 nM corresponded to half-maximal inhibition (IC50).
Consider `N#Cc1ccc(COc2cc(-c3cccnn3)c3c(n2)CCC3)nc1` [Example 275, 6-({[4-(Pyridazin-3-yl)-6,7-dihydro-5H-cyclopenta[b]pyridin-2-yl]oxy}methyl)pyridine-3-carbonitrile], for which the 50% inhibitory concentration (IC50) was 82 nM.
Regarding `Cc1ncc(-c2cc(OCc3ccc(F)cn3)nc3c2CCC3)cn1` [Example 40, 2-[(5-Fluoropyridin-2-yl)methoxy]-4-(2-methylpyrimidin-5-yl)-6,7-dihydro-5H-cyclopenta[b]pyridine hydrochloride], half-maximal inhibition (IC50) required 78 nM. The IC50 values of the last two molecules are within 1.5-fold of each other.
To `N#Cc1ncc(-c2cc(OCc3ncc(F)cc3F)nc3c2CCC3)cn1` [Example 44, 5-{2-[(3,5-Difluoropyridin-2-yl)methoxy]-6,7-dihydro-5H-cyclopenta[b]pyridin-4-yl}pyrimidine-2-carbonitrile] belongs 166 nM.
To `N#Cc1ccc(COc2cc(-c3cncnc3)c3c(n2)CCC3)cc1` [Example 258, 4-({[4-(Pyrimidin-5-yl)-6,7-dihydro-5H-cyclopenta[b]pyridin-2-yl]oxy}methyl)benzonitrile] belongs 10.1 nM; to `Cc1ccc(COc2cc(-c3cccnc3)c3c(n2)CCCC3)nc1` [Example 84, 2-[(5-Methylpyridin-2-yl)methoxy]-4-(pyridin-3-yl)-5,6,7,8-tetrahydroquinoline], 112 nM.
`Cc1nc(COc2cc(-c3cccnc3)c3c(n2)CCCC3)cs1` [Example 96, 2-[(2-Methyl-1,3-thiazol-4-yl)methoxy]-4-(pyridin-3-yl)-5,6,7,8-tetrahydroquinoline] returned an IC50 of 56.3 nM. Against the preceding molecule, the IC50 is about 2-fold lower.
The molecule `Cc1ncc(-c2cc(OCc3ccccn3)nc3c2CCCC3)s1` [Example 225, 4-(2-Methyl-1,3-thiazol-5-yl)-2-(pyridin-2-ylmethoxy)-5,6,7,8-tetrahydroquinoline hydrochloride] returned a half-maximal inhibitory concentration (IC50) of 102 nM.
Molecule `Nc1cncc(-c2cc(OCc3ccccn3)nc3c2CCCC3)c1` [Example 124, 5-[2-(Pyridin-2-ylmethoxy)-5,6,7,8-tetrahydroquinolin-4-yl]pyridin-3-amine] returned an IC50 of 24.8 nM.
In turn, `Fc1ccc(COc2cc(-c3cncnc3)c3c(n2)CCCC3)cc1` [Example 280, 2-[(4-Fluorobenzyl)oxy]-4-(pyrimidin-5-yl)-5,6,7,8-tetrahydroquinoline] showed an IC50 of 92 nM.
For `CNc1cncc(-c2cc(OCc3ccccn3)nc3c2CCCC3)c1` [Example 125, N-Methyl-5-[2-(pyridin-2-ylmethoxy)-5,6,7,8-tetrahydroquinolin-4-yl]pyridin-3-amine], 45.6 nM corresponded to half-maximal inhibition (IC50).
`c1cncc(-c2cc(OCc3ncco3)nc3c2CCCC3)c1` [Example 91, 2-(1,3-Oxazol-2-ylmethoxy)-4-(pyridin-3-yl)-5,6,7,8-tetrahydroquinoline] returned an IC50 of 16.9 nM. Compared with the last molecule, the IC50 is about 2.7-fold lower.
The molecule `COCc1cncc(-c2cc(OCc3ccccn3)nc3c2CCCC3)c1` [Example 123, 4-[5-(Methoxymethyl)pyridin-3-yl]-2-(pyridin-2-ylmethoxy)-5,6,7,8-tetrahydroquinoline hydrochloride] returned an IC50 of 58.8 nM.
To `CNc1cncc(-c2cc(OCc3ccccn3)nc3c2CCCC3)n1` [Example 208, N-Methyl-6-[2-(pyridin-2-ylmethoxy)-5,6,7,8-tetrahydroquinolin-4-yl]pyrazin-2-amine hydrochloride] belongs 125 nM; to `N#Cc1ccnc(COc2cc(-c3cncnc3)c3c(n2)CCCC3)c1` [Example 151, 2-({[4-(Pyrimidin-5-yl)-5,6,7,8-tetrahydroquinolin-2-yl]oxy}methyl)pyridine-4-carbonitrile], 439 nM.
For the molecule `Nc1cccc(COc2cc(-c3cncnc3)c3c(n2)CCCC3)n1` [Example 157, 6-({[4-(Pyrimidin-5-yl)-5,6,7,8-tetrahydroquinolin-2-yl]oxy}methyl)pyridin-2-amine], the IC50 turned out to be 333 nM. This IC50 and that of the molecule before are within 1.5-fold of each other.
On to `Cc1ncc(-c2cc(OCc3cccc(F)c3)nc3c2CCC3)cn1` [Example 266, 2-[(3-Fluorobenzyl)oxy]-4-(2-methylpyrimidin-5-yl)-6,7-dihydro-5H-cyclopenta[b]pyridine], for which half-maximal inhibition (IC50) required 71 nM.
To `Cc1ncc(-c2cc(OCc3ccnc(C#N)c3)nc3c2CCCC3)cn1` [Example 287, 4-({[4-(2-Methylpyrimidin-5-yl)-5,6,7,8-tetrahydroquinolin-2-yl]oxy}methyl)pyridine-2-carbonitrile] belongs 146 nM.
